According to PMC12571268, “Functional expression of a Mo-dependent formate dehydrogenase in Escherichia coli under aerobic conditions” (PLOS One, 2025):

Biological target: T1, TsFDH (formate dehydrogenase of Thiobacillus sp. KNK65MA) (Thiobacillus sp. KNK65MA, UniProt Q76EB7)
T1 construct: gene fdh65MA; full-length synthetic gene codon-optimized for E. coli on pZE plasmid pGEN1395 in E. coli delta-lpd; clarified lysate; metal-independent
T1 sequence (Q76EB7 1-401): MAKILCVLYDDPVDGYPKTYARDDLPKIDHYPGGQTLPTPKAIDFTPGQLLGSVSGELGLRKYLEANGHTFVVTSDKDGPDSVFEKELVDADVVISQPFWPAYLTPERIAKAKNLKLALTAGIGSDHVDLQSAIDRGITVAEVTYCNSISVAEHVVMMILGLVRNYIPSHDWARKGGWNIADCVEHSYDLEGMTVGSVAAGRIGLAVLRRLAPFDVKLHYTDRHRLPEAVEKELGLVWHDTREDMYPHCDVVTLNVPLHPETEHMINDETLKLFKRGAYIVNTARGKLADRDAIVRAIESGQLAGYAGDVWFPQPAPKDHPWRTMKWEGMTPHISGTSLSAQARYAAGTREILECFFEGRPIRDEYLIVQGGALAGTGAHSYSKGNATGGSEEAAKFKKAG
Test: NADH formation at […] nm in clarified lysate, blank without formate subtracted
Assay type: biochemical
Conditions: 100 mM formate, 5 mM NAD+, 100 mM Tris pH 9.0; plasmid-free strains as control

With `O=CO` [formate] the “NADH formation at 340 nm in clarified lysate, blank without formate subtracted” value was “lysates of the strains containing the FDH from Thiobacillus yielded higher specific activity”.
